In patent US20250066413A1, “COMPOSITIONS FOR TREATMENT OF INFLAMMATION” (Metro International Biotech, LLC, priority 2022, published 2025):

Legend:
Type in all cases: cell-based
[1] = system: NDF Cells; experiment: NAD Elevation Assay (NAD Cellular Assay), NDF cells; conditions: 0.25 mM compound
Experimental: (§1) Compounds were tested in an NAD Cellular Assay according to the following protocol. Jurkat cells (50,000 per in 100 microliters of RPMI media) were added to wells of a 96 well, conical bottomed plate. The cells were allowed to recover for 3 h in culture. A 16 microliter aliquot of a 100 mM compound stock solution was diluted with 784 microliters of medium and 10% FBS to give 800 microliters of a 2 mM compound treatment solution. The compound treatment solution was added to the cells for a final concentration of 1 mM compound (n=6 wells for each compound.) As a parallel control, nicotinamide mononucleotide (NMN) was added to cells at a final concentration of 2 mM (n=6). The plates were incubated for 24 hours, then spun at 1000 rpm for 10 min. The medium was removed, then the cells were washed with fresh PBS and spun again. The PBS medium was removed, then the cells were washed one more time with PBS and spun. The liquid was removed from each well via pipette, avoiding touching the cell pellet. The cells were lysed with 75 microliters of 0.5% DTAB. 25 microliters of the lysate was added to each of two flat bottomed plates. One plate was used for a BCA protein assay (clear), and the other plate was used for the NAD assay (clear bottom, white walled). The NAD concentration in each well was determined using a commercially available assay according to the kit instructions (e.g. Promega NAD/NADH-Glo™ Assay.) The Pierce BCA protein assay was run according to the kit instructions (e.g. ThermoScientific Catalog number 23225). NAD levels were normalized to total protein and reported as a multiple of the NAD level in untreated cells.
(§2) Assays with other cell types were run similarly, using the appropriate compound and NMN dilutions. Cell counts were adjusted as necessary to provide a signal within the reading range of the protein and NAD assay kits.

[2] = system: HEPG2 Cells; experiment: NAD Elevation Assay (NAD Cellular Assay), HEPG2 cells
Experimental: as §1, §2

[3] = system: Jurkat cells; experiment: NAD Elevation Assay (NAD Cellular Assay), Jurkat cells; conditions: 1 mM compound, 24 hours
Experimental: as §1, with “25 microliters of the lysate was added to each of two flat bottomed plates. One plate was used for a BCA protein assay (clear), and the other plate was used for the NAD assay (clear bottom, white walled).” left out, “NAD levels were normalized to total protein and reported as a multiple of the NAD level in untreated cells.” left out

[4] = system: AML12 Cells; experiment: NAD Elevation Assay (NAD Cellular Assay), AML12 cells; conditions: at 0.4-2 mM compound
Experimental: as §1, with “The PBS medium was removed, then the cells were washed one more time with PBS and spun. The liquid was removed from each well via pipette, avoiding touching the cell pellet. The cells were lysed with 75 microliters of 0.5% DTAB. 25 microliters of the lysate was added to each of two flat bottomed plates. One plate was used for a BCA protein assay (clear), and the other plate was used for the NAD assay (clear bottom, white walled).” left out, “NAD levels were normalized to total protein and reported as a multiple of the NAD level in untreated cells.” left out
as §2

Cn1c(=O)c2c(ncn2CC(=O)OCCCOC(=O)c2ccc[n+]([C@@H]3O[C@H](COP(=O)([O-])O)[C@@H](O)[C@H]3O)c2)n(C)c1=O [Compound 6P, ((2R,3S,4R,5R)-5-(3-((3-(2-(1,3-dimethyl-2,6-dioxo-1,2,3,6-tetrahydro-7H-purin-7-yl)acetoxy)propoxy)carbonyl)pyridin-1-ium-1-yl)-3,4-dihydroxytetrahydrofuran-2-yl)methyl hydrogen phosphate]
NAD Elevation Assay (NAD level normalized to total protein, multiple of the NAD level in untreated cells) [1]: 2.0x @0.25

Cn1c(=O)c2c(ncn2CCOC(=O)c2ccc[n+]([C@@H]3O[C@H](COP(=O)([O-])O)[C@@H](O)[C@H]3O)c2)n(C)c1=O [Compound 2P, ((2R,3S,4R,5R)-5-(3-((2-(1,3-dimethyl-2,6-dioxo-1,2,3,6-tetrahydro-7H-purin-7-yl)ethoxy)carbonyl)pyridin-1-ium-1-yl)-3,4-dihydroxytetrahydrofuran-2-yl)methyl hydrogen phosphate]
NAD Elevation Assay (NAD level normalized to total protein, multiple of the NAD level in untreated cells) ([2]; 2 mM compound): 1.6x @2

Cn1cnc2c1c(=O)n(CCOC(=O)c1ccc[n+]([C@@H]3O[C@H](COP(=O)([O-])O)[C@@H](O)[C@H]3O)c1)c(=O)n2C [Compound 4, ((2R,3S,4R,5R)-5-(3-((2-(3,7-dimethyl-2,6-dioxo-2,3,6,7-tetrahydro-1H-purin-1-yl)ethoxy)carbonyl)pyridin-1-ium-1-yl)-3,4-dihydroxytetrahydrofuran-2-yl)methyl hydrogen phosphate]
NAD Elevation Assay (NAD level normalized to total protein, multiple of the NAD level in untreated cells) ([2]; 0.1 mM compound): 2.1x @0.1

CCn1c(=O)c2c(ncn2CCOC(=O)c2ccc[n+]([C@@H]3O[C@H](COP(=O)([O-])O)[C@@H](O)[C@H]3O)c2)n(CC)c1=O [Compound 11P, ((2R,3S,4R,5R)-5-(3-((2-(1,3-diethyl-2,6-dioxo-1,2,3,6-tetrahydro-7H-purin-7-yl)ethoxy)carbonyl)pyridin-1-ium-1-yl)-3,4-dihydroxytetrahydrofuran-2-yl)methyl hydrogen phosphate]
NAD Elevation Assay (NAD level normalized to total protein, multiple of the NAD level in untreated cells) ([2]; 2 mM compound): 1.3x @2

CCCn1cnc2c1c(=O)n(CCOC(=O)c1ccc[n+]([C@@H]3O[C@H](COP(=O)([O-])O)[C@@H](O)[C@H]3O)c1)c(=O)n2C [Compound 7P, ((2R,3S,4R,5R)-3,4-dihydroxy-5-(3-((2-(3-methyl-2,6-dioxo-7-propyl-2,3,6,7-tetrahydro-1H-purin-1-yl)ethoxy)carbonyl)pyridin-1-ium-1-yl)tetrahydrofuran-2-yl)methyl hydrogen phosphate]
NAD Elevation Assay (NAD level normalized to total protein, multiple of the NAD level in untreated cells) [1]: 1.9x @0.25

Cn1c(=O)c2c(ncn2CCOC(=O)c2ccc[n+]([C@@H]3O[C@H](CO)[C@@H](O)[C@H]3O)c2)n(C)c1=O.O=S(=O)([O-])C(F)(F)F [Compound 2, 1-((2R,3R,4S,5R)-3,4-dihydroxy-5-(hydroxymethyl)tetrahydrofuran-2-yl)-3-((2-(1,3-dimethyl-2,6-dioxo-1,2,3,6-tetrahydro-7H-purin-7-yl)ethoxy)carbonyl)pyridin-1-ium trifluoromethanesulfonate]
NAD Elevation Assay (NAD level normalized to total protein, multiple of the NAD level in untreated cells) [3]: 2.9x @1

Cn1cnc2c1c(=O)n(CC(=O)OCCCOC(=O)c1ccc[n+]([C@@H]3O[C@H](CO)[C@@H](O)[C@H]3O)c1)c(=O)n2C.O=S(=O)([O-])C(F)(F)F [Compound 1, 1-((2R,3R,4S,5R)-3,4-dihydroxy-5-(hydroxymethyl)tetrahydrofuran-2-yl)-3-((3-(2-(3,7-dimethyl-2,6-dioxo-2,3,6,7-tetrahydro-1H-purin-1-yl)acetoxy)propoxy)carbonyl)pyridin-1-ium trifluoromethanesulfonate]
NAD Elevation Assay [4]: Active at 0.4-2

Cn1cnc2c1c(=O)n(CCNC(=O)c1ccc[n+]([C@@H]3O[C@H](COP(=O)([O-])O)[C@@H](O)[C@H]3O)c1)c(=O)n2C [Compound 9P, ((2R,3S,4R,5R)-5-(3-((2-(3,7-dimethyl-2,6-dioxo-2,3,6,7-tetrahydro-1H-purin-1-yl)ethyl)carbamoyl)pyridin-1-ium-1-yl)-3,4-dihydroxytetrahydrofuran-2-yl)methyl hydrogen phosphate]
NAD Elevation Assay (NAD level normalized to total protein, multiple of the NAD level in untreated cells) ([2]; 0.25 mM compound): 1.9x @0.25

Cn1cnc2c1c(=O)n(CCCOC(=O)c1ccc[n+]([C@@H]3O[C@H](COP(=O)([O-])O)[C@@H](O)[C@H]3O)c1)c(=O)n2C [Compound 5P, ((2R,3S,4R,5R)-5-(3-((3-(3,7-dimethyl-2,6-dioxo-2,3,6,7-tetrahydro-1H-purin-1-yl)propoxy)carbonyl)pyridin-1-ium-1-yl)-3,4-dihydroxytetrahydrofuran-2-yl)methyl hydrogen phosphate]
NAD Elevation Assay (NAD level normalized to total protein, multiple of the NAD level in untreated cells) [1]: 2.2x @0.25

Cn1cnc2c1c(=O)n(CCOC(=O)c1ccc[n+]([C@@H]3O[C@H](CO)[C@@H](O)[C@H]3O)c1)c(=O)n2C.O=S(=O)([O-])C(F)(F)F [Compound 3, 1-((2R,3R,4S,5R)-3,4-dihydroxy-5-(hydroxymethyl)tetrahydrofuran-2-yl)-3-((2-(3,7-dimethyl-2,6-dioxo-2,3,6,7-tetrahydro-1H-purin-1-yl)ethoxy)carbonyl)pyridin-1-ium trifluoromethanesulfonate]
NAD Elevation Assay [4]: Active at 0.4-2
